Target: T1, WT-TTR (Homo sapiens, UniProt P02766)
T1 construct: made in house
Assay: Stagnant acid-mediated TTR aggregation (fibril formation) assay, turbidity at 340 nm
Format: biochemical
Conditions: WT-TTR 7.2 μM; for remaining activity at 100 µM / inhibition at 100 µM: pH 4.4, compound 100 μM, pH 4.4, 37° C.; for remaining activity at 100 µM: read-out: % FF; for inhibition at 100 µM: read-out: % Inhibition
Description: Stagnant Acid-Mediated TTR Aggregation Assay.
After 1 h, the samples were diluted with 0.5 ml of 200 mM sodium acetate buffer containing 100 mM KCl and 1 mM EDTA. Samples after mild vortexing were incubated at 37° C. for the desired amount of time without stirring to evaluate the efficacy of the inhibitors. The extent of aggregation was probed by turbidity measurements at 340 nm using Tecan GENios microplate reader. […] The extent of TTR fibril formation in the absence of inhibitor was defined to be 100%. […] All experiments were done in triplicate. […] The IC50 was determined by plotting mean of % inhibition vs log and fitted to sigmoid equation:
The experiments were conducted at 25° C. After 1 h, the samples were diluted with 0.5 mL of 200 mM sodium acetate buffer pH 4.4 containing 100 mM KCl and 1 mM EDTA, vortexed, and incubated at 37° C. for 72 h. […] The stoichiometry of the binding of the inhibitors was determined by HPLC as described by Green et al., N. S. Palaninathan, S, L, Sacchettini, J. e. […] Dissociation constant of binding of these compounds to TTR was determined by fluorescence titration, and data were fitted into the Adair equation for two bind mg.

Row | SMILES | remaining activity at 100 µM (72 h) [%] | inhibition at 100 µM [%] | remaining activity at 50 µM (72 h, biphenyl ether 50 μM, read-out: % FF at 50 μM) [%]
1 | Cc1nnc2c(Oc3ccc(Cl)cc3)nc3ccccc3n12 [Compound 5001-0261] | 114 | 0 | 
2 | COc1cc(/C=C2\SC(=S)N(c3ccc(O)cc3)C2=O)ccc1O [Compound 2189-0711] | 230 | 0 | 
3 | Oc1ccc(Nc2nc(-c3ccc(Cl)cc3)nc3ccccc23)cc1 [Compound 5847-1646] | 96 | 4.06 | 
4 | O=C1CCCC2=C1C(c1cccc(O)c1)NC(=S)N2 (centres unmarked) [Compound C157-0040] | 106 | 0 | 
5 | O=C1NC(=S)S/C1=C\c1ccc(-c2cc(Cl)ccc2Cl)o1 [Compound 3062-0073] | 286 | 0 | 
6 | Nc1nc(F)cc(Oc2ccc(F)cc2)n1 [Compound 1544-0071] | 84 | 16 | 
7 | CCOC(=O)c1sc(=S)n(-c2cccc3ccccc23)c1N [Compound R052-0949] | 146 | 0 | 
8 | Cc1ccc2nc(Nc3nc(O)c4ccccc4n3)nc(C)c2c1 [Compound 5594-0187] | 68.9 | 31.1 | 
9 | CCOC(=O)c1c(N)sc(C(=O)Nc2cc(C)cc(C)c2)c1C [Compound R052-1596] | 87.8 | 12.2 | 
10 | CCc1ccc(Oc2cc(F)nc(N)n2)cc1 [Compound 1544-0079] | 10.4 | 9.71 | 
11 | O=C(Nc1c2c(nn1-c1ccc(F)cc1)C[S+]([O-])C2)c1ccccc1F (centres unmarked) [Compound C077-0216] | 104 | 0 | 
12 | Nc1nc(F)cc(Oc2ccccc2F)n1 [Compound 1544-0078] | 54.4 | 45.6 | 
13 | CCCCN(CC)Cc1c(C)nc2ccc(Cl)cc2c1O [Compound 4358-1230] | 79.7 | 20.3 | 
14 | COc1cc(C2NC(C(=O)O)CS2)ccc1O (centres unmarked) [Compound K085-0027] | 116 | 0 | 
15 | CCN(CC)CCCN(Cc1ccco1)C(=S)Nc1ccc(OC)cc1 [Compound C087-0785] | 107 | 0 | 
16 | O=C(O)C1CSC(c2ccc(O)cc2)N1 (centres unmarked) [Compound K085-0008] | 120 | 0 | 
17 | O=C(NC1CC1)c1cc(Sc2cccc(Cl)c2)nc2ccccc12 [Compound K784-7224] | 41.8 | 58.2 | 
18 | NN1C(=O)/C(=C\c2ccc(Cl)cc2)NC1=S [Compound C249-0056] | 131 | 0 | 
19 | Nc1nc(Cl)cc(Oc2ccccc2F)n1 [Compound 1545-0131] | 52.4 | 47.6 | 
20 | O=C1OC(c2ccc(Cl)cc2Cl)=N/C1=C/c1ccc(Cl)c(Cl)c1 [Compound K088-1297] | 138 | 0 | 
21 | O=C(O)C1CSC(c2ccc(Cl)c(Cl)c2)N1 (centres unmarked) [Compound K085-0014] | 102 | 0 | 
22 | Fc1ccccc1NC(=S)N(CCCN1CCOCC1)Cc1cccnc1 [Compound C087-1168] | 99.3 | 0.7 | 
23 | Clc1ccccc1C1CC(c2cccs2)Nc2nnnn21 (centres unmarked) [Compound K832-3346] | 0 | 100 | 
24 | O=C(O)C1CSC(c2cccnc2)N1 (centres unmarked) [Compound K085-0021] | 144 | 0 | 
25 | Cc1nc2c(C(=O)NCCC(C)C)cnn2c(O)c1Cc1ccccc1F [Compound C218-0295] | -86.7 | 91.7 | 
26 | Cc1ccccc1C1=N/C(=C\c2sccc2C)C(=O)O1 [Compound 1989-9396] | 115 | 0 | 
27 | Cc1nc2c(C(=O)NCc3ccc(F)cc3)cnn2c(O)c1Cc1ccccc1F [Compound C218-0299] | 46.9 | 53.1 | 
28 | Cc1ccc(C2NC(C(=O)O)CS2)cc1 (centres unmarked) [Compound K085-0026] | 14.3 | 85.7 | 
29 | O=C(O)c1ccc(Oc2ccc([N+](=O)[O-])cc2[N+](=O)[O-])c(O)c1 [Compound 22] |  |  | 75
30 | Cc1nc2c(ccc3ccccc32)c(O)c1CN(C)Cc1ccccc1 [Compound 3453-1353] | 105 | 0 | 

Reference: patent publication US20100190832A1, “Mechanism-based inhibitors of transthyretin amyloidosis: studies with biphenyl ethers and structural templates” (NATIONAL INSTITUTE OF IMMUNOLOGY., priority 2008, published 2010)
